The compounds below were run on CAL-85-1. Conditions: 72 h.
Method in brief: (§1)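 Breast cancer cell lines in 20 µl suspension were seeded onto 384-well plates pre-loaded with compound dissolved in 5 µl medium, then incubated 72 h. For viability, 2.5 µl CellTiter-Blue was added for 2 h at 37 °C and fluorescence read at 560/590 nm. Each plate was normalised to vehicle and a positive kill control and checked by Z'-factor. EC50 comes from the fitted percent-inhibition dose-response curve, censored at the highest concentration; rows with zero drug sensitivity score were dropped.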

SMILES | EC50, CellTiter-Blue viability [µM]
CNC(=O)c1ccccc1Sc1ccc2c(/C=C/c3ccccn3)n[nH]c2c1 [Axitinib] | 1.25
COc1cc(Nc2c(C#N)cnc3cc(OCCCN4CCN(C)CC4)c(OC)cc23)c(Cl)cc1Cl [Bosutinib] | 3.18
Nc1ccn([C@@H]2O[C@H](CO)[C@@H](O)C2(F)F)c(=O)n1 [Gemcitabine] | 0.0874
CC(=O)[C@]1(O)Cc2c(O)c3c(c(O)c2[C@@H](O[C@H]2C[C@H](N)[C@H](O)[C@H](C)O2)C1)C(=O)c1ccccc1C3=O [Idarubicin] | 0.24
C/C(=C\c1csc(C)n1)[C@@H]1C[C@@H]2O[C@]2(C)CCC[C@H](C)[C@H](O)[C@@H](C)C(=O)C(C)(C)[C@@H](O)CC(=O)N1 [Ixabepilone] | 0.947
C=CCn1c(=O)c2cnc(Nc3ccc(N4CCN(C)CC4)cc3)nc2n1-c1cccc(C(C)(C)O)n1 [MK1775] | 0.507
CO[C@@]12[C@H](COC(N)=O)C3=C(C(=O)C(C)=C(N)C3=O)N1C[C@@H]1N[C@@H]12 [Mitomycin C] | 3.92
CCNC(=O)c1noc(-c2cc(C(C)C)c(O)cc2O)c1-c1ccc(CN2CCOCC2)cc1 [NVP-AUY922] | 0.0188

Each compound was assayed on CAL-51. Conditions: 72 h.
Method in brief: as §1

SMILES | EC50, CellTiter-Blue viability [µM]
CNC(=O)c1ccccc1Sc1ccc2c(/C=C/c3ccccn3)n[nH]c2c1 [Axitinib] | 1.61
COc1cc(Nc2c(C#N)cnc3cc(OCCCN4CCN(C)CC4)c(OC)cc23)c(Cl)cc1Cl [Bosutinib] | 5.02
Nc1ccn([C@@H]2O[C@H](CO)[C@@H](O)C2(F)F)c(=O)n1 [Gemcitabine] | 0.022
CC(=O)[C@]1(O)Cc2c(O)c3c(c(O)c2[C@@H](O[C@H]2C[C@H](N)[C@H](O)[C@H](C)O2)C1)C(=O)c1ccccc1C3=O [Idarubicin] | 0.00778
C/C(=C\c1csc(C)n1)[C@@H]1C[C@@H]2O[C@]2(C)CCC[C@H](C)[C@H](O)[C@@H](C)C(=O)C(C)(C)[C@@H](O)CC(=O)N1 [Ixabepilone] | > 1
C=CCn1c(=O)c2cnc(Nc3ccc(N4CCN(C)CC4)cc3)nc2n1-c1cccc(C(C)(C)O)n1 [MK1775] | 0.382
CO[C@@]12[C@H](COC(N)=O)C3=C(C(=O)C(C)=C(N)C3=O)N1C[C@@H]1N[C@@H]12 [Mitomycin C] | 5.79
CCNC(=O)c1noc(-c2cc(C(C)C)c(O)cc2O)c1-c1ccc(CN2CCOCC2)cc1 [NVP-AUY922] | 0.0222

The compounds below were run on CAL-148. Conditions: 72 h.
Method in brief: as §1

SMILES | EC50, CellTiter-Blue viability [µM]
CNC(=O)c1ccccc1Sc1ccc2c(/C=C/c3ccccn3)n[nH]c2c1 [Axitinib] | 1.88
COc1cc(Nc2c(C#N)cnc3cc(OCCCN4CCN(C)CC4)c(OC)cc23)c(Cl)cc1Cl [Bosutinib] | 1.86
Nc1ccn([C@@H]2O[C@H](CO)[C@@H](O)C2(F)F)c(=O)n1 [Gemcitabine] | 0.0187
CC(=O)[C@]1(O)Cc2c(O)c3c(c(O)c2[C@@H](O[C@H]2C[C@H](N)[C@H](O)[C@H](C)O2)C1)C(=O)c1ccccc1C3=O [Idarubicin] | 0.0187
C/C(=C\c1csc(C)n1)[C@@H]1C[C@@H]2O[C@]2(C)CCC[C@H](C)[C@H](O)[C@@H](C)C(=O)C(C)(C)[C@@H](O)CC(=O)N1 [Ixabepilone] | 0.601
C=CCn1c(=O)c2cnc(Nc3ccc(N4CCN(C)CC4)cc3)nc2n1-c1cccc(C(C)(C)O)n1 [MK1775] | 0.242
CO[C@@]12[C@H](COC(N)=O)C3=C(C(=O)C(C)=C(N)C3=O)N1C[C@@H]1N[C@@H]12 [Mitomycin C] | 2.94
CCNC(=O)c1noc(-c2cc(C(C)C)c(O)cc2O)c1-c1ccc(CN2CCOCC2)cc1 [NVP-AUY922] | 0.0194

Each compound was assayed on MDA-MB-453. Conditions: 72 h.
Method in brief: as §1

SMILES | EC50, CellTiter-Blue viability [µM]
CNC(=O)c1ccccc1Sc1ccc2c(/C=C/c3ccccn3)n[nH]c2c1 [Axitinib] | 0.657
COc1cc(Nc2c(C#N)cnc3cc(OCCCN4CCN(C)CC4)c(OC)cc23)c(Cl)cc1Cl [Bosutinib] | 2.67
Nc1ccn([C@@H]2O[C@H](CO)[C@@H](O)C2(F)F)c(=O)n1 [Gemcitabine] | 0.103
CC(=O)[C@]1(O)Cc2c(O)c3c(c(O)c2[C@@H](O[C@H]2C[C@H](N)[C@H](O)[C@H](C)O2)C1)C(=O)c1ccccc1C3=O [Idarubicin] | 0.396

Next, values leading:

EC50, CellTiter-Blue viability [µM] | SMILES
0.515 | C/C(=C\c1csc(C)n1)[C@@H]1C[C@@H]2O[C@]2(C)CCC[C@H](C)[C@H](O)[C@@H](C)C(=O)C(C)(C)[C@@H](O)CC(=O)N1 [Ixabepilone]
0.31 | C=CCn1c(=O)c2cnc(Nc3ccc(N4CCN(C)CC4)cc3)nc2n1-c1cccc(C(C)(C)O)n1 [MK1775]
3.43 | CO[C@@]12[C@H](COC(N)=O)C3=C(C(=O)C(C)=C(N)C3=O)N1C[C@@H]1N[C@@H]12 [Mitomycin C]
0.0153 | CCNC(=O)c1noc(-c2cc(C(C)C)c(O)cc2O)c1-c1ccc(CN2CCOCC2)cc1 [NVP-AUY922]

What follows are compounds tested on DU-4475. Conditions: 72 h.
Method in brief: as §1

SMILES | EC50, CellTiter-Blue viability [µM]
CNC(=O)c1ccccc1Sc1ccc2c(/C=C/c3ccccn3)n[nH]c2c1 [Axitinib] | 2.25
COc1cc(Nc2c(C#N)cnc3cc(OCCCN4CCN(C)CC4)c(OC)cc23)c(Cl)cc1Cl [Bosutinib] | 5.67
Nc1ccn([C@@H]2O[C@H](CO)[C@@H](O)C2(F)F)c(=O)n1 [Gemcitabine] | 0.0916
CC(=O)[C@]1(O)Cc2c(O)c3c(c(O)c2[C@@H](O[C@H]2C[C@H](N)[C@H](O)[C@H](C)O2)C1)C(=O)c1ccccc1C3=O [Idarubicin] | 0.0234
C/C(=C\c1csc(C)n1)[C@@H]1C[C@@H]2O[C@]2(C)CCC[C@H](C)[C@H](O)[C@@H](C)C(=O)C(C)(C)[C@@H](O)CC(=O)N1 [Ixabepilone] | 0.642
C=CCn1c(=O)c2cnc(Nc3ccc(N4CCN(C)CC4)cc3)nc2n1-c1cccc(C(C)(C)O)n1 [MK1775] | 0.477
CO[C@@]12[C@H](COC(N)=O)C3=C(C(=O)C(C)=C(N)C3=O)N1C[C@@H]1N[C@@H]12 [Mitomycin C] | 5.07
CCNC(=O)c1noc(-c2cc(C(C)C)c(O)cc2O)c1-c1ccc(CN2CCOCC2)cc1 [NVP-AUY922] | 0.0159

Reference: the supplement of paper PMC4862054
